Assay results: the Kinase Knowledgebase extract (Sharma et al. 2016)

Experiments:
PIK3CA (human) [1] = biological target: PIK3CA (human) (UniProt P42336); assay: Cell-Based Assay
PIK3CA (human) [2] = biological target: PIK3CA (human) (UniProt P42336); assay: Enzyme Assay
PIK3CD (Human) = PIK3CD (Human) (UniProt O00329); assay: Enzyme Assay
PIK3CG (human) = PIK3CG (human) (UniProt P48736); assay: Enzyme Assay
PIK3CB (Human) = PIK3CB (Human) (UniProt P42338); assay: Enzyme Assay
Sequence of PIK3CB (Human) (P42338 whole entry, looked up): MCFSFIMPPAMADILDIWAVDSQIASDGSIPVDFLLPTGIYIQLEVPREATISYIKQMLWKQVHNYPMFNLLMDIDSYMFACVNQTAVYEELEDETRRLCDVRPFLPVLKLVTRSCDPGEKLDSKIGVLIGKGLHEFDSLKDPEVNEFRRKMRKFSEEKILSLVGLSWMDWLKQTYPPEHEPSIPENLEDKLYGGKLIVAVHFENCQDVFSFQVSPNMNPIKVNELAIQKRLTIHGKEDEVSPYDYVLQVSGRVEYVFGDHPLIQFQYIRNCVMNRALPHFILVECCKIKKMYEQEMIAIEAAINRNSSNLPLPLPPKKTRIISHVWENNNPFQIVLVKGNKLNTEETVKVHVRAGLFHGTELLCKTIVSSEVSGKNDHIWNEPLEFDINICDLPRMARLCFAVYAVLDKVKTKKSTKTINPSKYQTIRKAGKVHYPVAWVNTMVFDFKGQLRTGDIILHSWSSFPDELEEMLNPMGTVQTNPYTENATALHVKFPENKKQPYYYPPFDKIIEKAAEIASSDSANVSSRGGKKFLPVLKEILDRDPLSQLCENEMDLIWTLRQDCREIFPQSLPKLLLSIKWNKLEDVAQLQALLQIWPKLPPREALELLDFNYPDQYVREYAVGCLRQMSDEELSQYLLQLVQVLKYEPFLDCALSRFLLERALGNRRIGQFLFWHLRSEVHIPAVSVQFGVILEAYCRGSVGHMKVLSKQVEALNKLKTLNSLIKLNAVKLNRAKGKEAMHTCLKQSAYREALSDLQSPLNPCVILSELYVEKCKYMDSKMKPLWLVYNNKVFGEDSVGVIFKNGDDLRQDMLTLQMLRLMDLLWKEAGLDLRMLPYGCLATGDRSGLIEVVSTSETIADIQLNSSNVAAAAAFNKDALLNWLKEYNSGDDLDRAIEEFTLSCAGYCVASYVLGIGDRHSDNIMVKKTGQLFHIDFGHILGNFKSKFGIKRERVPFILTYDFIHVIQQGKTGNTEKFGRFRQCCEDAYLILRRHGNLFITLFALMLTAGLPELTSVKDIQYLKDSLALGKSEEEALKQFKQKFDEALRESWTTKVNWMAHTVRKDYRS

Sequence of PIK3CD (Human) (O00329 whole entry, looked up): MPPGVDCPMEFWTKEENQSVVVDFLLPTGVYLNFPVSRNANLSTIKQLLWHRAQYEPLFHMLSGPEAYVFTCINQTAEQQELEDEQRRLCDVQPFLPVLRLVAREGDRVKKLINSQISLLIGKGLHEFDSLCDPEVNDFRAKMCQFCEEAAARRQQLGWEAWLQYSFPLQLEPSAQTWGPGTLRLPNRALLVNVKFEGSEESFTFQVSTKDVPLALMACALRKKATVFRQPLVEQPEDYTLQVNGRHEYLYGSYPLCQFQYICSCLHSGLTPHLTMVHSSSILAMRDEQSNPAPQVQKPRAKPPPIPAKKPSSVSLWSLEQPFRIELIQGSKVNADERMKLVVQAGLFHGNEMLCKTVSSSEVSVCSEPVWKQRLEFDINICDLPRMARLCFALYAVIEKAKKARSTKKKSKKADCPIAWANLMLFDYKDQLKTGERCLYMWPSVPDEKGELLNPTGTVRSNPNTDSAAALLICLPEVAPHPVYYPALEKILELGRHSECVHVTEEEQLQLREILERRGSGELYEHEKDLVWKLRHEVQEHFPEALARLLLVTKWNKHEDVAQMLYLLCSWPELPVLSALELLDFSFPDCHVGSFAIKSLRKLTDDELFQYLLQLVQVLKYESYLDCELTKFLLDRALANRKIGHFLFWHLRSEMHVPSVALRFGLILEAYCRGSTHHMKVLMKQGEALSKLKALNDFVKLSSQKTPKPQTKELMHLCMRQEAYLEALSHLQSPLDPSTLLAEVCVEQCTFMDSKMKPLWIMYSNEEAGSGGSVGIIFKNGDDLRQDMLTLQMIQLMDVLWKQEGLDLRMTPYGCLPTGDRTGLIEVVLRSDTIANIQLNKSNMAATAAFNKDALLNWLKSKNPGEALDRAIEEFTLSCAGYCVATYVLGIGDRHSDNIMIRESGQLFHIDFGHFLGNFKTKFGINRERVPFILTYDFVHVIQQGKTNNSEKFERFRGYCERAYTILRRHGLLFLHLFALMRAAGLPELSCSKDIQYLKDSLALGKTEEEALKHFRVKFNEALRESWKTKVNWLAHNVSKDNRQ
Sequence of PIK3CA (human) (P42336 whole entry, looked up): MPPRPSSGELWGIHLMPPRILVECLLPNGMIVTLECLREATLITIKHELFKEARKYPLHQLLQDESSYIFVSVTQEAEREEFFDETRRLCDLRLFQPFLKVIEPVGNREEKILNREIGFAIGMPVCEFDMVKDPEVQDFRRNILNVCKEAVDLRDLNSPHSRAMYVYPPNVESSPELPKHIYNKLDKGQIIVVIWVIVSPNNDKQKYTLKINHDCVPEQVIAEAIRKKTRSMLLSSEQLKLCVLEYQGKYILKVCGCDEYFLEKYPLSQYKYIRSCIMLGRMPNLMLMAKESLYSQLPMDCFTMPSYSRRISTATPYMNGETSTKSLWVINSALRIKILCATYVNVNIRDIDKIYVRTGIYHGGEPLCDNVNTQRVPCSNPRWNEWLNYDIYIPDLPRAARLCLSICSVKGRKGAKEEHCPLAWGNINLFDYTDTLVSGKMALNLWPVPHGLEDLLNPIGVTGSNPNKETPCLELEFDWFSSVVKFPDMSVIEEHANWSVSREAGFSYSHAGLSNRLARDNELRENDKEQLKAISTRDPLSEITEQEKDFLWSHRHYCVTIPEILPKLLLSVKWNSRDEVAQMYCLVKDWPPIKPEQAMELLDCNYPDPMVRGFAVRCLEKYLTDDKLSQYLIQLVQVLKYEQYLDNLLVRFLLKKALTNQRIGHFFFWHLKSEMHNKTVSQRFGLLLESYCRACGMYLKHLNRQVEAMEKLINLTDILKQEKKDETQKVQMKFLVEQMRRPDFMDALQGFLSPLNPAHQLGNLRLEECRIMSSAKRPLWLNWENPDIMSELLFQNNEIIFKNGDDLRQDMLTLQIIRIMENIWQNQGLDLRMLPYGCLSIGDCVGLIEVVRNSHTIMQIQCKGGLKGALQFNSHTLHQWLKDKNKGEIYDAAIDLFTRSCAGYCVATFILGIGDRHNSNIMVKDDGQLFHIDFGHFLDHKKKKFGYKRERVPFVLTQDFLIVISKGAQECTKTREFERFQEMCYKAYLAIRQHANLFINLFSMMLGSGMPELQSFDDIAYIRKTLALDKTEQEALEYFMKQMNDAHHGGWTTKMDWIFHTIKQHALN
Sequence of PIK3CG (human) (P48736 whole entry, looked up): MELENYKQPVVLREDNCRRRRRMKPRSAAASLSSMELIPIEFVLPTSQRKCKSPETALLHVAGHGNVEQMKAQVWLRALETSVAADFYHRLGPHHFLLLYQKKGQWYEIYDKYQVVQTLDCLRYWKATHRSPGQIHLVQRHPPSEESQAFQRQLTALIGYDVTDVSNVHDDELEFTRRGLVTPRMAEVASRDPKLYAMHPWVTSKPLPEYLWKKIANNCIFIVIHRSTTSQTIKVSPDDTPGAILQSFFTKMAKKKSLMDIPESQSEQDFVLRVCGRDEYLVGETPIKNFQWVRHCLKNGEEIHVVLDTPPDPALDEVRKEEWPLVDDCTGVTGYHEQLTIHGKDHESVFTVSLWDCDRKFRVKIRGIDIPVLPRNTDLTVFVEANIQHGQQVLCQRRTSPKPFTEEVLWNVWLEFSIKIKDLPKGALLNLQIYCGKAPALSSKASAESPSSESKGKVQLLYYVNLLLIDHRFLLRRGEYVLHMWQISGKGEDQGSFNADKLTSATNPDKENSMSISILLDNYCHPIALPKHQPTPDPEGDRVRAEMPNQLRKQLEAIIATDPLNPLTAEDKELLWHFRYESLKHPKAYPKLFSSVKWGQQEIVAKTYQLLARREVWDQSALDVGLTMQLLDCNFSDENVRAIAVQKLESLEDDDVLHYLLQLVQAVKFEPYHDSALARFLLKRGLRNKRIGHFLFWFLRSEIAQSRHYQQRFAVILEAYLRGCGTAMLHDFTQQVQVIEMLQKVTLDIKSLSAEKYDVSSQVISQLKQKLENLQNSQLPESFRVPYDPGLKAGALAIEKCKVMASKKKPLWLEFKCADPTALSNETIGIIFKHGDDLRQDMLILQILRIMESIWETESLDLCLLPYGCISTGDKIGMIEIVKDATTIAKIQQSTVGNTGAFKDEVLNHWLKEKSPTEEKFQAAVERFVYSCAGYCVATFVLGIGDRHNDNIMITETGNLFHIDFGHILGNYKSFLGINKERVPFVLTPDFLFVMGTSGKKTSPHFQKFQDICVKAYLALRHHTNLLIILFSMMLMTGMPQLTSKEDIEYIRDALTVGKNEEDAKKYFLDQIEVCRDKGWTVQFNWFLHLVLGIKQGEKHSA

Row | SMILES | IC50 (PIK3CA (human) [1]; t47d) [nM] | IC50 (PIK3CA (human) [1]; mda-mb-361) [nM] | also measured
1 | CC(=O)Nc1cn2cc(-c3ccc4oc(N)nc4c3)ccc2n1 | 100 to 1000 | – | IC50 (PIK3CA (human) [1]; pc3): < 100 nM
2 | Nc1nc2cc(-c3ccc4ncc(-c5ccncc5)n4c3)ccc2o1 | 100 to 1000 | – | IC50 (PIK3CA (human) [2]): < 100 nM; IC50 (PIK3CD (Human)): 100 to 1000 nM; IC50 (PIK3CG (human)): < 100 nM
3 | CC(C)[C@@H](N)C(=O)N1CCN(c2cnc3ccc(-c4ccc5oc(N)nc5c4)cc3n2)CC1 | 100 to 1000 | – | –
4 | CCOC(=O)N1CCN(c2cnc3ccc(-c4ccc5oc(N)nc5c4)nc3n2)CC1 | – | 100 to 1000 | –
5 | Nc1nc2cccc(-c3ccc4nccc(-c5ccncc5)c4c3)c2s1 | – | – | IC50 (PIK3CA (human) [2]): < 100 nM
6 | Nc1nc2cc(-c3ccc4ncc(N5CCCCC5)nc4c3)ccc2o1 | > 10000 | – | –
7 | Nc1nc2cc(-c3ccc4ncc(N5CCNC(=O)C5)nc4n3)ccc2o1 | – | 100 to 1000 | –
8 | CC(C)(N)C(=O)N1CCN(c2cnc3ccc(-c4ccc5oc(N)nc5c4)nc3c2)CC1 | – | 100 to 1000 | –
9 | CC(N)C(=O)N1CCN(c2cnc3ccc(-c4ccc5oc(N)nc5c4)cc3n2)CC1 (stereo not drawn) | 100 to 1000 | – | –
10 | COC1CN(C(=O)c2cnc3ccc(-c4ccc5oc(N)nc5c4)cn23)C1 | – | – | IC50 (PIK3CA (human) [1]; pc3): 100 to 1000 nM
11 | CC(=O)Nc1cc2ccc(-c3cc(F)c4oc(N)nc4c3)cn2n1 | – | – | IC50 (PIK3CA (human) [2]): > 10000 nM; IC50 (PIK3CB (Human)): > 10000 nM; IC50 (PIK3CD (Human)): > 10000 nM
12 | Nc1nc2cc(-c3ccc4ncc(N5CC6CCC(C5)O6)nc4n3)ccc2o1 | – | 100 to 1000 | –
13 | C[C@@H]1CN(C2CN(C(=O)c3cnc4ccc(-c5ccc6oc(N)nc6c5)cn34)C2)CCN1C | – | – | IC50 (PIK3CA (human) [1]; pc3): 100 to 1000 nM
14 | Nc1nc2cc(-c3ccc4ncc(N5CCN(C(=O)C6(N)CC6)CC5)cc4n3)ccc2o1 | – | 100 to 1000 | –
15 | C[C@H]1CN(c2cnc3ccc(-c4cccc5c(N)nsc45)cc3n2)CCN1 | – | – | IC50 (PIK3CG (human)): < 100 nM
16 | C[C@H]1COCCN1c1cnc2ccc(-c3ccc4oc(N)nc4c3)nc2n1 | – | 100 to 1000 | –
17 | O=C(c1cnc2ccc(-c3cnc(Cl)c(NS(=O)(=O)c4ccccc4)c3)cn12)N1CCOCC1 | – | – | IC50 (PIK3CA (human) [1]; pc3): 100 to 1000 nM
18 | COc1ncc(-c2ccc3ncc(C(=O)N4CCOCC4)n3c2)cc1NS(=O)(=O)c1cccnc1 | – | – | IC50 (PIK3CA (human) [1]; pc3): 100 to 1000 nM
19 | Nc1nc2cc(-c3ccc4ncc(N5CC(N6CCN(CC7CC7)CC6)C5)cc4n3)ccc2o1 | – | 100 to 1000 | –
20 | Nc1nc2cc(-c3ccc4ncc(N5CC(C(=O)N6CCN(C7CC7)CC6)C5)nc4c3)ccc2o1 | 100 to 1000 | – | –
21 | Nc1nc2cc(-c3ccc4ncc(C(=O)NCCO)n4c3)ccc2o1 | 100 to 1000 | – | –
22 | CS(=O)(=O)N1CCC(n2cnc3ccc(-c4ccc5oc(N)nc5c4)cc3c2=O)CC1 | – | – | IC50 (PIK3CA (human) [2]): 100 to 1000 nM; IC50 (PIK3CD (Human)): > 10000 nM; IC50 (PIK3CG (human)): > 10000 nM
23 | CC(C)N1CCN(C(=O)C2CN(c3cnc4ccc(-c5ccc6oc(N)nc6c5)cc4n3)C2)CC1 | 100 to 1000 | – | –
24 | O=C(c1cnc2ccc(-c3cnc(Cl)c(NS(=O)(=O)c4ccc(F)cc4)c3)cn12)N1CCOCC1 | – | – | IC50 (PIK3CA (human) [1]; pc3): 100 to 1000 nM
25 | CC(=O)N1CCC(N(C)c2ncnc3ccc(-c4ccc5oc(N)nc5c4)cc23)CC1 | 100 to 1000 | – | –
26 | Nc1nc2cc(-c3ccc4ncc(C(=O)NCCCN5CCCC5)n4c3)ccc2o1 | 100 to 1000 | – | –

Row | SMILES | IC50 (PIK3CA (human) [1]; t47d) [nM] | IC50 (PIK3CA (human) [1]; mda-mb-361) [nM] | also measured
27 | CN1CCC(Nc2ncnc3ccc(-c4ccc5oc(N)nc5c4)nc23)CC1 | 100 to 1000 | – | –
28 | C[C@H]1CN(C2CN(c3cnc4ccc(-c5ccc6oc(N)nc6c5)nc4c3)C2)CCN1 | – | 100 to 1000 | –
29 | C[C@@H]1COCCN1c1cnc2ccc(-c3ccc4oc(N)nc4c3)nc2n1 | – | 100 to 1000 | –
30 | C[C@@H]1CN(C2CN(c3cnc4ccc(-c5ccc6oc(N)nc6c5)nc4c3)C2)CCN1 | – | 100 to 1000 | –
31 | Nc1nc2cc(-c3ccc4ncc(-c5ccncc5)n4n3)ccc2o1 | 100 to 1000 | – | IC50 (PIK3CA (human) [2]): < 100 nM; IC50 (PIK3CB (Human)): 100 to 1000 nM; IC50 (PIK3CG (human)): < 100 nM; IC50 (PIK3CA (human) [1]; pc3): 100 to 1000 nM
32 | Nc1nc2cc(-c3ccc4ncc(N5CC(N6CCN(CC7CC7)CC6)C5)nc4c3)ccc2o1 | 100 to 1000 | – | –
33 | Nc1nc2cc(-c3ccc4ncc(C(=O)N[C@H]5CC[C@H](O)CC5)n4c3)ccc2o1 | – | – | IC50 (PIK3CG (human)): < 100 nM
34 | Nc1nc2cc(-c3ccc4ncc(C(=O)N5CCC(O)C5)n4c3)ccc2o1 (stereo not drawn) | 100 to 1000 | – | IC50 (PIK3CG (human)): 100 to 1000 nM
35 | NC1=NC2C=C(c3ccc4nc(N)oc4c3)C=CC2O1 (stereo not drawn) | – | – | IC50 (PIK3CA (human) [2]): 100 to 1000 nM; IC50 (PIK3CD (Human)): 100 to 1000 nM; IC50 (PIK3CG (human)): < 100 nM
36 | CCOC(=O)N1CC=C(c2cnc3ccc(-c4ccc5oc(N)nc5c4)nc3n2)CC1 | – | 100 to 1000 | –
37 | Nc1nc2cc(-c3ccc4ncc(N5CCN(C(=O)[C@H](N)CO)CC5)nc4c3)ccc2o1 | 100 to 1000 | – | –
38 | Cc1cn(-c2cnc3ccc(-c4ccc5oc(N)nc5c4)cc3n2)cn1 | > 10000 | – | –
39 | Nc1noc2cc(-c3ccc4nccc(-c5ccncc5)c4c3)ccc12 | 100 to 1000 | – | –
40 | CS(=O)(=O)N1CCN(C(=O)c2cnc3ccc(-c4ccc5oc(N)nc5c4)cn23)CC1 | 100 to 1000 | – | –
41 | Nc1nc2cc(-c3ccc4ncc(N5CCC(O)CC5)nc4n3)ccc2o1 | – | 100 to 1000 | –
42 | Nc1nc2cc(-c3ccc4ncc(N5CCNC(=O)C5)nc4c3)ccc2o1 | 100 to 1000 | – | –
43 | C[C@@H]1CN(C2CN(c3cnc4ccc(-c5ccc6oc(N)nc6c5)nc4c3)C2)CCN1C | – | 100 to 1000 | –
44 | Nc1nc2cc(-c3ccc4ncc(-c5cccnc5)cc4n3)ccc2o1 | – | > 10000 | –
45 | C[C@H]1CN(c2cnc3ccc(-c4ccc5oc(N)nc5c4)cc3c2)CCN1 | – | – | IC50 (PIK3CA (human) [2]): < 100 nM; IC50 (PIK3CB (Human)): < 100 nM; IC50 (PIK3CD (Human)): > 10000 nM
46 | CN1CCN(C2CN(c3cnc4ccc(-c5ccc6oc(N)nc6c5)nc4c3)C2)CC1 | – | 100 to 1000 | –
47 | COc1ncc(-c2ccc3ncn(C4CCN(C(C)C)CC4)c(=O)c3c2)cc1NS(=O)(=O)c1ccccc1 | – | – | IC50 (PIK3CA (human) [1]; pc3): 100 to 1000 nM
48 | Nc1nc2cc(-c3ccc4ncnc(OC5CCOCC5)c4c3)ccc2o1 | 100 to 1000 | – | –
49 | CC1(C)CN(C2CN(c3cnc4ccc(-c5ccc6oc(N)nc6c5)nc4c3)C2)CCN1 | – | 100 to 1000 | –
50 | Nc1nc2cc(-c3ccc4ncc(N5C6CCC5COC6)nc4n3)ccc2o1 | – | 100 to 1000 | –
51 | C[C@@H]1CN(C2CN(c3cnc4ccc(-c5ccc6oc(N)nc6c5)cc4n3)C2)CCN1 | 100 to 1000 | – | –
